Experimental data from the Deep4Chem optical property database.

Assay: solvent given as SMILES

O=S(=O)([O-])c1ccc(O)c2ccccc12
absorption maximum (in C1COCCO1): 322 nm | absorption maximum (in CC#N): 322 nm | absorption maximum (in CC(C)O): 321 nm | absorption maximum (in CCCCO): 321 nm | absorption maximum (in CCO): 321 nm | absorption maximum (in CCOC(C)=O): 322 nm | absorption maximum (in CN(C)C=O): 324 nm | absorption maximum (in CO): 321 nm | absorption maximum (in CS(C)=O): 325 nm | absorption maximum (in O): 319 nm

COC(=O)c1cc2c(cc3ccc4cccc5ccc2c3c45)[nH]1
absorption maximum (in C1CCOC1): 400 nm

CCn1c2c(-c3ccc(-c4cccs4)s3)cc(C(C)(C)C)cc2c2cc(C(C)(C)C)cc(-c3ccc(-c4cccs4)s3)c21
absorption maximum (in ClCCl): 360 nm

Cc1cc(C(F)(F)F)nc2c1ccc1nc(-c3ccc(Cl)cc3)cn12
absorption maximum (in CC#N): 362.6 nm | absorption maximum (in CCCCCC): 376.5 nm | absorption maximum (in CCCCOC(C)=O): 368.6 nm | absorption maximum (in CCOC(C)=O): 368.2 nm | absorption maximum (in CO): 359.6 nm | absorption maximum (in Cc1ccccc1): 375.2 nm | absorption maximum (in ClC(Cl)Cl): 369.2 nm | absorption maximum (in ClCCl): 366.6 nm | absorption maximum (in c1ccccc1): 375 nm

CN(C)c1ccc(C2=Nc3sc4cc(Cl)ccc4[n+]3[B-](F)(F)O2)cc1
absorption maximum (in C1CCOC1): 430 nm | absorption maximum (in CC#N): 426 nm | absorption maximum (in CC(C)=O): 430 nm | absorption maximum (in Cc1ccccc1): 427 nm | absorption maximum (in ClCCl): 430 nm

CC[n+]1c(-c2ccccc2)c2cc(NC(N)=[NH2+])ccc2c2ccc(NC(N)=[NH2+])cc21
absorption maximum (in O): 397 nm

N#Cc1ccc(Oc2ccc3c4c(cccc24)C(=O)N(CCO)C3=O)cc1
absorption maximum (in ClC(Cl)Cl): 352 nm

c1ccc2cc(-c3c4ccccc4c(-c4ccc(-n5c6ccccc6c6ccccc65)cc4)c4ccccc34)ccc2c1
absorption maximum (in ClCCl): 377 nm

CCOC(=O)c1cc(C(=O)O)nc2cc(OC)ccc12
absorption maximum (in CCO): 349 nm

COc1ccc(/C=C/c2ccncn2)cc1
absorption maximum (in ClCCl): 338 nm

Nc1cc2nc3cc(F)c(F)cc3nc2cc1N
absorption maximum (in CCO): 433 nm

c1ccc(-c2ccc(-c3ccc(-c4cc(-c5ccc(-c6ccc(-c7ccccc7)cc6)cc5)cc(-c5ccc(-c6ccc(-c7ccccc7)cc6)cc5)c4)cc3)cc2)cc1
absorption maximum (in C1COCCO1): 306.5 nm

CC(C)(C)c1ccc2c(c1)sc1[n+]2[B-](F)(F)n2c(c3cccc4c(Br)ccc2c43)=N1
absorption maximum (in C1CCOC1): 494 nm | absorption maximum (in CC#N): 488 nm | absorption maximum (in CCCCCC): 490 nm | absorption maximum (in Cc1ccccc1): 498 nm | absorption maximum (in ClCCl): 463 nm

Cc1cc2ccsc2c2[nH]c3ccccc3c12
absorption maximum (in ClCCl): 310 nm

Cc1cc2c3ccccc3[nH]c2c2[nH]c3ccccc3c12
absorption maximum (in ClCCl): 323 nm

CCCCN(CCCC)c1ccc2c(c1)C#CC#Cc1cc(C(F)(F)F)ccc1C#Cc1cc(c3cc1C#Cc1ccc(C(F)(F)F)cc1C#CC#Cc1cc(N(CCCC)CCCC)ccc1C#C3)C#C2
absorption maximum (in ClCCl): 474 nm

Cc1ccc(-n2c(-c3ccccc3[NH-])[nH+]c3c4ccccc4c4ccccc4c32)cc1
absorption maximum (in Cc1ccccc1): 363 nm

COC(=O)C[C@H](Cc1c[nH]c2ccccc12)NC(=O)[C@H](CC(=O)N[C@@H](CC1=CCc2ccccc21)C(=O)OC)NC(=O)OC(C)(C)C
absorption maximum (in CC#N): 280 nm | absorption maximum (in CCOC(C)=O): 280 nm | absorption maximum (in CO): 280 nm

CN1c2cc3nc4cc(Cl)c(Cl)cc4nc3cc2N(C)C1(C)C
absorption maximum (in CCO): 471 nm

CC1=[N+]2C(=C(c3c4ccccc4cc4ccccc34)c3ccc(/C=C/C(C)(C)C)n3[B-]2(F)F)C=C1
absorption maximum (in ClC(Cl)Cl): 549 nm

F[B-]1(F)OC(c2ccc(N3CCCC3)cc2)=Cc2cccc[n+]21
absorption maximum (in ClC(Cl)Cl): 438 nm

N#Cc1ccc(-n2nc(C#N)c(N3CCCC3)n2)cc1
absorption maximum (in CC#N): 362 nm

CCCOc1ccc(/C=C/C=C/C=C/c2ccc([N+](=O)[O-])cc2)cc1
absorption maximum (in CC1CCCCC1): 414 nm | absorption maximum (in CC#N): 413 nm | absorption maximum (in Cc1ccccc1): 420 nm | absorption maximum (in ClCCl): 421 nm

c1ccc(-c2c3c(c(-c4ccccc4)c4cc5ccccc5cc24)Cc2c(c(-c4ccccc4)c4cc5ccccc5cc4c2-c2ccccc2)C3)cc1
absorption maximum (in CC#N): 389 nm | absorption maximum (in CCCCCC): 388 nm | absorption maximum (in CO): 388 nm | absorption maximum (in Cc1ccccc1): 391 nm | absorption maximum (in ClCCl): 392 nm

CCCCN1C(=O)c2cccc3c(OC)ccc(c23)C1=O
absorption maximum (in CC#N): 376 nm | absorption maximum (in CS(C)=O): 484 nm | absorption maximum (in Cc1ccccc1): 362 nm

CCOC(=O)c1ccc(C2CC(c3cccc4ccccc34)=NN2c2ccc(C)cc2)cc1 (stereo not given)
absorption maximum (in ClCCl): 385 nm

CN(C)C1=Nc2cccc3cccc1c23
absorption maximum (in CC#N): 427 nm

CC(C)(C)c1ccc2oc3nc4oc5ccc(-n6c7ccccc7c(=O)c7ccccc76)cc5c4cc3c2c1
absorption maximum (in ClC(Cl)Cl): 396 nm

Cc1cc(-c2ccc(-c3nc4ccccc4[nH]3)cc2)c(C)cc1-c1ccc(-c2nc3ccccc3[nH]2)cc1
absorption maximum (in CN(C)C=O): 323 nm

CCn1c2ccccc2c2cc(-c3cc(-c4ccc5c(c4)c4ccccc4n5CC)nc(N4CCCCC4)n3)ccc21
absorption maximum (in C1CCOC1): 367 nm | absorption maximum (in CCOC(C)=O): 368 nm | absorption maximum (in CN(C)C=O): 370 nm | absorption maximum (in Cc1ccccc1): 369 nm | absorption maximum (in ClCCl): 371 nm

C/C(=C\c1ccccc1)c1nc2ccccc2o1
absorption maximum (in C1CCCCC1): 315 nm | absorption maximum (in CO): 315 nm

CCOC(=O)c1cc2ccc3ccccc3c2c(C(=O)OCC)c1N
absorption maximum (in Cc1ccccc1): 427 nm

O=Cc1ccc(-c2ccc(C3=CCCCC3)s2)s1
absorption maximum (in C1CCOC1): 385 nm | absorption maximum (in CC#N): 358 nm | absorption maximum (in CCCCCC): 381 nm | absorption maximum (in CCO): 389 nm | absorption maximum (in OCCOCCO): 389 nm | absorption maximum (in c1ccncc1): 392 nm

CC(C)(C)C#Cc1ccc2c3cccc4cccc(c5cccc1c52)c43
absorption maximum (in C1CCCCC1): 455 nm

COc1ccc(-c2c3ccccc3c(-c3ccc(OC)cc3)c3cc4ccccc4cc23)cc1
absorption maximum (in ClCCl): 495 nm

N#Cc1cc(/C=C/c2ccc(N(c3ccccc3)c3ccccc3)cc2)ccc1-c1ccc(/C=C/c2ccc(N(c3ccccc3)c3ccccc3)cc2)cc1C#N
absorption maximum (in ClCCl): 386 nm

CO
absorption maximum (in CCCCCC): 177 nm

CCCC1(CCC)c2cc(-c3ccc(-c4ccc(OC)cc4)o3)ccc2-c2ccc(-c3ccc(-c4ccc(OC)cc4)o3)cc21
absorption maximum (in C1CCCCC1): 410 nm

CCc1c(C)[nH]c(C2=[N+]3C(=Cc4c(C)c(CC)c(/C=C/c5ccc(N(C)C)cc5)n4[B-]3(F)F)c3ccccc32)c1C
absorption maximum (in C1CCOC1): 720 nm | absorption maximum (in CC#N): 713 nm | absorption maximum (in CCCCCC): 719 nm | absorption maximum (in CO): 712 nm | absorption maximum (in Cc1ccccc1): 730 nm | absorption maximum (in ClCCl): 725 nm

N#CC1=C(c2ccc(-c3cccs3)s2)CCC1
absorption maximum (in C1CCOC1): 364 nm | absorption maximum (in CC#N): 362 nm | absorption maximum (in CCCCCC): 360 nm | absorption maximum (in CCO): 366 nm | absorption maximum (in OCCOCCO): 367 nm | absorption maximum (in c1ccncc1): 368 nm

COc1ccc2c(c1)CCC1=C(C#Cc3ccc(Cl)cc3)O[B-](F)(F)[O+]=C12
absorption maximum (in ClCCl): 445 nm

COc1cc2c(cc1OC)C1=C[C@H](c3ccccc3)C3(C(C#N)=C(C#N)N1CC2)c1cc(Cl)ccc1-c1ccc(Cl)cc13
absorption maximum (in ClCCl): 310 nm

N#Cc1cc(-c2ccccc2)c(N2c3ccccc3Oc3ccccc32)c(-c2ccccc2)c1
absorption maximum (in C1CCCCC1): 405 nm

Cc1cc(C)c(B(c2c(C)cc(C)cc2C)c2cc3cccc4c(B(c5c(C)cc(C)cc5C)c5c(C)cc(C)cc5C)cc5cccc2c5c34)c(C)c1
absorption maximum (in CCCCCC): 392 nm
